# In patent US7582447B2, “DNA encoding a testicular carnitine transporter” (Human Cell Systems, Inc., priority 2001, dated 2009):
# T1: CT2 (Homo sapiens, UniProt Q86VW1)
# T1 construct: a cRNA (RNA complementary to cDNA) was prepared in vitro from a plasmid containing the CT2cDNA; expressed in transfected cells; host or cells: Xenopus laevis oocytes injected with CT2 cRNA
# T1 sequence (Q86VW1 1-543 isoform Q86VW1-2): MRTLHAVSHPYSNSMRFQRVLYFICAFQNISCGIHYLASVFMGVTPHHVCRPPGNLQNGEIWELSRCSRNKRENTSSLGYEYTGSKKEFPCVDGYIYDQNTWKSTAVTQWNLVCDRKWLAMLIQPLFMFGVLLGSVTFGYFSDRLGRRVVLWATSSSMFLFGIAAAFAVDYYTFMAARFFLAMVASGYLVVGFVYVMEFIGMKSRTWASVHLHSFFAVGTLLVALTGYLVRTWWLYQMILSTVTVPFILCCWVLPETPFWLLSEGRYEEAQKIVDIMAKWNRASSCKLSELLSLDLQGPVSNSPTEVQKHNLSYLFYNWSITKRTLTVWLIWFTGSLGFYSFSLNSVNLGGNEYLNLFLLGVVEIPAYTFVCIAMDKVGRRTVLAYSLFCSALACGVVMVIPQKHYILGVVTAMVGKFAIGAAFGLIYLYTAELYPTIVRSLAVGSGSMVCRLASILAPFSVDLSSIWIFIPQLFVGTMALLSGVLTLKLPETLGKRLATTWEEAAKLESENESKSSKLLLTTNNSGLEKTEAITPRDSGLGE
# Assays:
# Assay type in all cases: cell-based
# [1] = molecular target: T1, CT2; experiment: inhibition experiment: ^3H-carnitine uptake by oocytes injected with CT2 cRNA in the presence of unlabelled compounds; details: for inhibition of ^3H-carnitine transport by CT2: 50 nM ^3H-carnitine, 5 μM or 50 μM unlabelled compound, FIG. 4
# Procedure: (§1) The thus-obtained cRNA was injected into oocytes of a platanna in accordance with the already reported method (Sekine, T. et al., J. Biol. Chem., Vol. 272, pp. 18526-18529, 1997), and an uptake experiment by radioactive labeled L-carnitine was conducted on the oocytes.
# (3) An influence to be exerted by D-Carnitine, which is an isomer of L-carnitine, on the L-carnitine transport by CT2 was studied.
# (6) In order to study further on the substrate selectivity of CT2, in the ^3H-carnitine uptake experiment system by oocytes into which CT2cRNA was injected, various carnitine analogs were added to the system and its influences were investigated (inhibition experiment).
# The ^3H-carnitine uptake experiment was performed in accordance with the above-described method using oocytes into which CT2cRNA was injected. 50 nM ^3H-carnitine uptake was measured in the presence or absence of 5 μM or 50 μM of various compounds (unlabelled).
# [2] = molecular target: T1, CT2; experiment: uptake experiment of radioactive labeled substrates by oocytes injected with human CT2 cRNA; details: platanna oocytes injected with CT2 cRNA; FIG. 1A
# Procedure: It is possible to confirm the ability to transport (uptake) carnitine into a cell by expressing a cRNA prepared from the obtained CT2cDNA by introducing the cRNA into an oocyte and measuring a substrate uptake into the cell employing an ordinary uptake experiment (Sekine, T et al., Biochem. Biophis. Res. Commun., Vol. 251, pp. 586-591, 1998) wherein carnitine is used as a substrate.
# Next, a cRNA (RNA complementary to cDNA) was prepared in vitro from a plasmid containing the CT2cDNA by using a T7RNA polymerase (see Sekine, T., et al., J. Biol. Chem., Vol. 272, pp. 18526-18529, 1997).
# as §1
# A concentration dependence of the carnitine transport by CT2 was studied through an investigation of changes in amounts of uptake of various concentration carnitines by CT2. The uptake experiment of radioactive labeled carnitines was performed by using oocytes into which the CT2cRNA was injected and in accordance with the above-described method.
# [3] = substrate: C[N+](C)(C)C[C@H](O)CC(=O)[O-]; experiment: as above; details: other: Michaelis-Menten kinetics, oocytes injected with CT2cRNA; FIG. 2A
Molecule,inhibition of ^3H-carnitine transport by CT2 [1],uptake of radioactive labeled substrate by oocytes which expressed the CT2 [2],other results
CC(=O)OC(CC(=O)[O-])C[N+](C)(C)C (racemic) [acetyl DL-carnitine],significantly inhibited,,
Nc1ccc(C(=O)NCC(=O)O)cc1 [paraamino hippuric acid],did not show inhibition effect,not observed,
C[N+](C)(C)CC(=O)O [betaine],significantly inhibited,,
CC(=O)O[C@H](CC(=O)[O-])C[N+](C)(C)C [acetyl L-carnitine],significantly inhibited,,
C[N+](C)(C)C[C@@H](O)CC(=O)[O-] [D-carnitine],significantly inhibited,,"inhibition of the L-carnitine transport by CT2 (concentration dependence) ([1]; oocytes injected with CT2 cRNA, FIG. 2B): inhibited the L-carnitine transport by CT2 in a concentration dependent manner; Ki ([1]; oocytes injected with CT2 cRNA, FIG. 2B, read-out: Ki value, inhibition of the L-carnitine transport by CT2): ~30.1 µM"
C[N+](C)(C)C[C@H](O)CC(=O)[O-] [L-carnitine],,exhibit ^3H-L-carnitine uptake,
CCCCCCCC(=O)O[C@H](CC(=O)[O-])C[N+](C)(C)C [octanoyl L-carnitine],significantly inhibited,,
"CC[N+](CC)(CC)CC [tetraethylammnonium, tetraethyl ammonium]",did not show inhibition effect,not observed,
"CT2 (Homo sapiens) (protein, a cRNA (RNA complementary to cDNA) was prepared in vitro from a plasmid containing the CT2cDNA; expressed in transfected cells; host or cells: Xenopus laevis oocytes injected with CT2 cRNA) MRTLHAVSHPYSNSMRFQRVLYFICAFQNISCGIHYLASVFMGVTPHHVCRPPGNLQNGEIWELSRCSRNKRENTSSLGYEYTGSKKEFPCVDGYIYDQNTWKSTAVTQWNLVCDRKWLAMLIQPLFMFGVLLGSVTFGYFSDRLGRRVVLWATSSSMFLFGIAAAFAVDYYTFMAARFFLAMVASGYLVVGFVYVMEFIGMKSRTWASVHLHSFFAVGTLLVALTGYLVRTWWLYQMILSTVTVPFILCCWVLPETPFWLLSEGRYEEAQKIVDIMAKWNRASSCKLSELLSLDLQGPVSNSPTEVQKHNLSYLFYNWSITKRTLTVWLIWFTGSLGFYSFSLNSVNLGGNEYLNLFLLGVVEIPAYTFVCIAMDKVGRRTVLAYSLFCSALACGVVMVIPQKHYILGVVTAMVGKFAIGAAFGLIYLYTAELYPTIVRSLAVGSGSMVCRLASILAPFSVDLSSIWIFIPQLFVGTMALLSGVLTLKLPETLGKRLATTWEEAAKLESENESKSSKLLLTTNNSGLEKTEAITPRDSGLGE",,,Km [3]: 20.3 µM
